“Also recorded” adds a separate entry of the source. Where a name gives a salt, the structure may show the parent alone. Values belong to the compound of their own block, whether it stands above or below them.
Tests used:
TAAR1 [1] = target: T1, TAAR1 (Homo sapiens, UniProt Q96RJ0); experiment: BRET cAMP biosensor (EPAC) assay of TAAR1 agonistic activity in transiently transfected HEK-293 cells; type: cell-based; parameters: key to Agonistic Activity (class Inactive): Inactive: Producing less than 20% activation of TAAR1 relative to 1 μM tyramine hydrochloride; conditions: for TAAR1 Activity (active / inactive, in words): agonistic activity in words; for Agonistic Activity (class Inactive): primary screening at 1 μM or 10 μM, relative to 1 μM tyramine hydrochloride; for EC50, μM / EC50: TAAR1 agonistic activity, concentration-response; for activation at 10 µM: HEK293, compound at 10 μM (footnote c); for activation at 10 µM / Agonistic Activity at 1 μM, %: compared to 1 μM tyramine hydrochloride (positive control), primary screening; for Agonistic Activity at 1 μM, %: compound at 1 μM
T1 construct: expressed in transfected cells; host or cells: HEK-293 cells, transient transfection
T1 sequence (Q96RJ0 1-339): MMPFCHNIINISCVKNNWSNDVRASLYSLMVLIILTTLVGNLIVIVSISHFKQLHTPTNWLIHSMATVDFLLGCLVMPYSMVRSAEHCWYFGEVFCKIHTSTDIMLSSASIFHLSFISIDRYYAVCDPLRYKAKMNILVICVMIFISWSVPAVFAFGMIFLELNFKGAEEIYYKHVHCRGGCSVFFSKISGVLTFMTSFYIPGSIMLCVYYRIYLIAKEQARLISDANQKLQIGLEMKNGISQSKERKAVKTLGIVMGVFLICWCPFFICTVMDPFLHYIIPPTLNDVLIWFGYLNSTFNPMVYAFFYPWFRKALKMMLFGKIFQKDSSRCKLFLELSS
Description: Compounds 7–29 synthesized as described above (as well the initial hit compound 1 used as a comparator) were tested in the Bioluminescence Resonance Energy Transfer approach (BRET) assay using HEK-293 cells transiently transfected with cDNA for TAARs as well as cAMP BRET biosensor (EPAC) protein. The compounds were initially tested at 1 μM or 10 μM concentrations and those producing <20% activation of TAAR1 (relative to 1 μM tyramine hydrochloride) were not pursued further. The active compounds were further evaluated in a dose–response mode in order to determine their EC50 values.
The Bioluminescence Resonance Energy Transfer approach (BRET) has been used for functional activity experiments. HEK-293 cells were transiently transfected with cDNA for TAARs and cAMP BRET biosensor (EPAC) protein and then plated in a 96-well plate as described. All compounds were tested at the initial concentrations of 1 μM or 10 μM. Then, for active compounds, a concentration–response analysis was performed in order to calculate the EC50 values. Natural agonist of TAAR1 tyramine hydrochloride was used as a positive control.

TAAR1 [2] = target: T1, TAAR1; parameters: method as in PMID 11723224; conditions: not tested in this paper; cited from earlier work
[3] = tested on: dopamine transporter knockout (DAT-KO) rats; experiment: DAT-KO rat hyperlocomotion test; type: in vivo; conditions: for Reduction in hyperlocomotion of DAT-KO rats: i.p., 90 min locomotion test, dose range 5–15 mg/kg for 18
Description: Compounds 9, 17–19 were evaluated in dopamine transporter knockout (DAT-KO) rats characterized with psychosis-like hyperlocomotion activity. The ability of compounds to reduce the hyperlocomotion in these genetically modified animals generally deemed as an adequate model of psychosis-like states and schizophrenia was expected to unveil the potential of these compounds as potential therapies for these psychiatric disorders.
Twelve Wistar dopamine transporter knockout (DAT-KO) female rats were utilized for assessment of drugs’ activity on hyperlocomotion. Animals were maintained on a 12/12 light/dark cycle at the room temperature maintained between 20 °C and 23 °C with a relative humidity maintained between 30% and 70%. Chow and water were provided ad libitum for the duration of the studies.
All compounds were dissolved in physiological saline (0.9% solution of NaCl) and intraperitoneally injected in volume 10 mL/kg immediately before locomotion testing.
Rats were intraperitoneally injected with a compound solution or vehicle (saline) and were immediately placed in Plexiglas boxes 40 cm × 40 cm × 40 cm for 90 min. Noldus EthoVision software was used to measure the distance moved by the animals.

Solubility = type: physicochemical; conditions: reason for not progressing to in vivo tests

SMILES: Cl.NCCC1CCN(C(=O)Nc2cc(F)cc(F)c2)CC1 [Compound 14, 4-(2-Aminoethyl)-N-(3,5-difluorophenyl)piperidine-1-carboxamide hydrochloride]
TAAR1 Activity (active / inactive, in words) (TAAR1 [1]): Inactive
Agonistic Activity (class Inactive) (TAAR1 [1]): Inactive

SMILES: Cl.NCCC1CCN(S(=O)(=O)c2ccccc2)CC1 [Compound 26, 2-[1-(Phenylsulfonyl)piperidin-4-yl]ethanamine hydrochloride]
Agonistic Activity (class Inactive) (TAAR1 [1]): Inactive

SMILES: CCc1[nH]nc(C(=O)Nc2ccc([C@H]3CNCCO3)cc2)c1C [Ralmitaront]
TAAR1 Activity (reference ligand) (TAAR1 [2]): Active

SMILES: Cl.NCCC1CCN(C(=O)Nc2cccc(F)c2)CC1 [Compound 8, 4-(2-Aminoethyl)-N-(3-fluorophenyl)piperidine-1-carboxamide hydrochloride]
Agonistic Activity (class Inactive) (TAAR1 [1]): Inactive

SMILES: Cc1ccc(NC(=O)N2CCC(CCN)CC2)cc1F.Cl [Compound 15, 4-(2-Aminoethyl)-N-(3-fluoro-4-methylphenyl)piperidine-1-carboxamide hydrochloride]
EC50, μM (TAAR1 [1]): inactive
Agonistic Activity (class Inactive) (TAAR1 [1]): Inactive

SMILES: Cc1ccc(NC(=O)N2CCC(CCN)CC2)cc1.Cl [Compound 7, 4-(2-Aminoethyl)-N-(4-methylphenyl)piperidine-1-carboxamide hydrochloride]
TAAR1 Activity (active / inactive, in words) (TAAR1 [1]): Inactive
Agonistic Activity (class Inactive) (TAAR1 [1]): Inactive ^b

SMILES: COc1ccc(C)cc1NC(=O)N1CCC(CCN)CC1 [Compound 22, 4-(2-Aminoethyl)-N-(2-methoxy-5-methylphenyl)piperidine-1-carboxamide hydrochloride]
activation at 10 µM (TAAR1 [1]): 84%
EC50 (TAAR1 [1]): 1900 nM

SMILES: Cc1ccccc1NC(=O)N1CCC(CCN)CC1.Cl [Compound 10, 4-(2-Aminoethyl)-N-(2-methylphenyl)piperidine-1-carboxamide hydrochloride]
TAAR1 Activity (active / inactive, in words) (TAAR1 [1]): Inactive
Agonistic Activity (class Inactive) (TAAR1 [1]): Inactive

SMILES: Cc1ccc(C)c(NC(=O)N2CCC(CCN)CC2)c1.Cl [Compound 19, 4-(2-Aminoethyl)-N-(2,5-dimethylphenyl)piperidine-1-carboxamide hydrochloride]
Reduction in hyperlocomotion of DAT-KO rats [3]: absence of in vivo efficacy
activation at 10 µM (TAAR1 [1]): 80%
EC50 (TAAR1 [1]): 42 nM

SMILES: Cc1cccc(NC(=O)N2CCC(CCN)CC2)c1.Cl [Compound 9, 4-(2-Aminoethyl)-N-(3-methylphenyl)piperidine-1-carboxamide hydrochloride]
Reduction in hyperlocomotion of DAT-KO rats [3]: absence of in vivo efficacy
EC50 (TAAR1 [1]): 52 nM
TAAR1 Activity (active / inactive, in words) (TAAR1 [1]): Active
Agonistic Activity at 1 μM, % (TAAR1 [1]): 89%

SMILES: Cl.NCCC1CCN(C(=O)Nc2cc(F)ccc2F)CC1 [Compound 12, 4-(2-Aminoethyl)-N-(2,5-difluorophenyl)piperidine-1-carboxamide hydrochloride]
EC50 (TAAR1 [1]): 273 nM
TAAR1 Activity (active / inactive, in words) (TAAR1 [1]): Active
Agonistic Activity at 1 μM, % (TAAR1 [1]): 75%

SMILES: Cl.NCCC1CCN(C(=O)Nc2ccccc2)CC1 [Compound 1, 4-(2-Aminoethyl)-N-phenylpiperidine-1-carboxamide hydrochloride]
EC50 (TAAR1 [1]): 507 nM
Agonistic Activity at 1 μM, % (TAAR1 [1]): 65%

SMILES: Cl.NCCC1CCN(C(=O)Nc2cccc(Cl)c2)CC1 [Compound 23, 4-(2-Aminoethyl)-N-(3-chlorophenyl)piperidine-1-carboxamide hydrochloride]
Agonistic Activity (class Inactive) (TAAR1 [1]): Inactive

SMILES: Cl.NCCC1CCN(C(=O)Nc2ccc(F)cc2)CC1 [Compound 11, 4-(2-Aminoethyl)-N-(4-fluorophenyl)piperidine-1-carboxamide hydrochloride]
EC50 (TAAR1 [1]): 206 nM
EC50, μM (TAAR1 [1]): submicromolar
Agonistic Activity at 1 μM, % (TAAR1 [1]): 84%

SMILES: Cc1cc(NC(=O)N2CCC(CCN)CC2)ccc1F [Compound 16, 4-(2-Aminoethyl)-N-(4-fluoro-3-methylphenyl)piperidine-1-carboxamide hydrochloride]
activation at 10 µM (TAAR1 [1]): 107%
EC50 (TAAR1 [1]): 143 nM

SMILES: Cc1ccc(NC(=O)N2CCC(CCN)CC2)cc1C.Cl [Compound 17, 4-(2-Aminoethyl)-N-(3,4-dimethylphenyl)piperidine-1-carboxamide hydrochloride]
Reduction in hyperlocomotion of DAT-KO rats [3]: absence of in vivo efficacy
activation at 10 µM (TAAR1 [1]): 84%
EC50 (TAAR1 [1]): 33 nM

SMILES: Cl.NCCC1CCN(C(=O)Nc2ccc(F)cc2F)CC1 [Compound 13, 4-(2-Aminoethyl)-N-(2,4-difluorophenyl)piperidine-1-carboxamide hydrochloride]
TAAR1 Activity (active / inactive, in words) (TAAR1 [1]): Inactive
Agonistic Activity (class Inactive) (TAAR1 [1]): Inactive

SMILES: Cc1ccc(S(=O)(=O)N2CCC(CCN)CC2)cc1.Cl [Compound 28, 2-{1-[(4-Methylphenyl)sulfonyl]piperidin-4-yl}ethanamine hydrochloride]
Agonistic Activity (class Inactive) (TAAR1 [1]): Inactive

SMILES: NCCC1CCN(C(=O)c2ccccc2)CC1 [Compound 24, (4-(2-Aminoethyl)piperidin-1-yl)(phenyl)methanone hydrochloride]
activation at 10 µM (TAAR1 [1]): 31%
EC50 (TAAR1 [1]): 635 nM

SMILES: Cc1cccc(NC(=O)N2CCC(CCN)CC2)c1C [Compound 20, 4-(2-Aminoethyl)-N-(2,3-dimethylphenyl)piperidine-1-carboxamide hydrochloride]
activation at 10 µM (TAAR1 [1]): 82%
EC50 (TAAR1 [1]): 914 nM

activation at 10 µM (TAAR1 [1]): 41%
EC50 (TAAR1 [1]): 634 nM
SMILES: Cc1cccc(C(=O)N2CCC(CCN)CC2)c1 [Compound 25, (4-(2-Aminoethyl)piperidin-1-yl)(m-tolyl)methanone]

SMILES: Cl.NCCC1CCN(C(=O)Nc2cccc(C(F)(F)F)c2)CC1 [Compound 21, 4-(2-Aminoethyl)-N-(3-(trifluoromethyl)phenyl)piperidine-1-carboxamide hydrochloride]
activation at 10 µM (TAAR1 [1]): 96%
EC50 (TAAR1 [1]): 35 nM
Solubility (Solubility): poor solubility

SMILES: Cc1cc(C)cc(NC(=O)N2CCC(CCN)CC2)c1.Cl [Compound 18, 4-(2-Aminoethyl)-N-(3,5-dimethylphenyl)piperidine-1-carboxamide hydrochloride]
Effect on DAT-KO hyperlocomotion at 5 mg/kg ([3]; 5 mg/kg i.p., dynamics for 90 min, two-way ANOVA): did not reveal significant effect
Effect on DAT-KO hyperlocomotion at 10 mg/kg ([3]; 10 mg/kg i.p., 90 min, two-way ANOVA): significantly decreased hyperlocomotion
Effect on DAT-KO hyperlocomotion at 15 mg/kg ([3]; 15 mg/kg i.p., 90 min, two-way ANOVA): significantly decreased DAT-KO hyperlocomotion
Reduction in hyperlocomotion of DAT-KO rats ([3]; listed as 18 (AP163)): statistically significant, dose-dependent reduction; also recorded: significantly attenuated DAT-KO hyperlocomotion
Reduction in hyperlocomotion of DAT-KO rats ([3]; listed as AP163): statistically significant and dose-dependent reduction in hyperlocomotion
activation at 10 µM (TAAR1 [1]): 85%
EC50 (TAAR1 [1]): 112 nM

SMILES: CN1CCC(CCN)CC1.Cl.Cl [Compound 29, 2-(1-Methylpiperidin-4-yl)ethan-1-amine dihydrochloride]
TAAR1 Activity (active / inactive, in words) (TAAR1 [1]): inactivity
Agonistic Activity (class Inactive) (TAAR1 [1]): Inactive

SMILES: Cl.NCCC1CCN(S(=O)(=O)c2ccc(F)cc2)CC1 [Compound 27, 2-{1-[(4-Fluorophenyl)sulfonyl]piperidin-4-yl}ethanamine hydrochloride]
Agonistic Activity (class Inactive) (TAAR1 [1]): Inactive

— publication PMC9569940, “Discovery and In Vivo Efficacy of Trace Amine-Associated Receptor 1 (TAAR1) Agonist 4-(2-Aminoethyl)-N-(3,5-dimethylphenyl)piperidine-1-carboxamide Hydrochloride (AP163) for the Treatment of Psychotic Disorders” (International Journal of Molecular Sciences, 2022)
